Assay results from paper PMC5976239 (Journal of medicinal chemistry, 2017).
Converted amounts (≈) assume the structure as drawn.

Legend:
[1] = test system: C. albicans ATCC MYA-1237(R) (F); test: MIC determination by in vitro antifungal assay; type: cell-based; conditions: Candida albicans, 48 h, read-out: MIC (MIC-0)
[2] = test system: C. albicans ATCC MYA-2310(S) (E); test: MIC determination by in vitro antifungal assay; type: cell-based; conditions: Candida albicans, 48 h, read-out: MIC (MIC-0)
[3] = test system: Aspergillus terreus ATCC MYA-3633 (M); test: MIC determination against filamentous fungi; type: cell-based; conditions: 48 h, read-out: MIC (MIC-0)
[4] = test system: C. albicans ATCC 90819(R) (D); test: MIC determination by in vitro antifungal assay; type: cell-based; conditions: Candida albicans, ATCC90819, 48 h, read-out: MIC (MIC-0)
[5] = test system: C. albicans ATCC MYA-1003(R) (G); test: MIC determination by in vitro antifungal assay; type: cell-based; conditions: Candida albicans, 48 h, read-out: MIC (MIC-0)
[6] = test system: C. albicans ATCC MYA-2876(S) (C); test: MIC determination by in vitro antifungal assay; type: cell-based; conditions: Candida albicans, 48 h, read-out: MIC (MIC-0)
[7] = test system: Aspergillus flavus ATCC MYA-3631 (K); test: MIC determination against filamentous fungi; type: cell-based; conditions: 48 h, read-out: MIC (MIC-0)
[8] = test system: C. albicans, non-albicans Candida, and Aspergillus strains; test: Antifungal activity over the panel of 13 fungal strains; type: cell-based; conditions: for antifungal activity (in words): overall, fungal strains tested (27 except strains K and L); for MIC: read-out: antifungal activity class based on MIC values; for antifungal activity class based on MIC values: against all fungal strains tested (5 and 6 except strain K)
[9] = test system: Candida albicans ATCC 10231 (A); test: MIC determination by in vitro antifungal assay; type: cell-based; conditions: ATCC10231, 48 h, read-out: MIC (MIC-0)
[10] = test system: C. albicans ATCC 64124(R) (B); test: MIC determination by in vitro antifungal assay; type: cell-based; conditions: Candida albicans, ATCC64124, 48 h, read-out: MIC (MIC-0)
[11] = test system: Aspergillus nidulans ATCC 38163 (L); test: MIC determination against filamentous fungi; type: cell-based; conditions: ATCC38163, 48 h, read-out: MIC (MIC-0)
[12] = test system: Candida albicans ATCC 10231 (A); test: MIC determination in the presence and absence of FBS; type: cell-based; conditions: strains A, J, and L; +10% FBS versus no FBS
Hemolytic activity assay = type: cell-based; conditions: mouse, murine red blood cells (mRBCs)
[13] = test system: C. albicans ATCC 64124 (strain B) biofilms; test: Biofilm assay

MIC [1]	MIC [2]	MIC [3]	MIC [4]	MIC [5]	MIC [6]	MIC [7]	MIC [9]	MIC [10]	MIC [11]	MIC [8]	increase in MIC in biofilms (SMIC50 and SMIC80 versus MIC in liquid cultures) [13]	antifungal activity class based on MIC values [8]	SMILES	antifungal activity (in words) [8]	antifungal activity in the presence of FBS (in words) [12]	hemolysis at 60 min, 7.8 µg/mL (Hemolytic activity assay)	hemolysis at 60 min, 62.5 µg/mL (Hemolytic activity assay)
31.3 µg/mL (≈ 85.2 µM)	> 31.3 µg/mL	> 31.3 µg/mL	> 31.3 µg/mL	> 31.3 µg/mL	31.3 µg/mL (≈ 85.2 µM)	> 31.3 µg/mL	31.3 µg/mL (≈ 85.2 µM)	31.3 µg/mL (≈ 85.2 µM)	> 31.3 µg/mL	–	–	–	OC(CNCCN1CCOCC1)(Cn1cncn1)c1ccc(F)cc1F (stereo not shown) [Compound 28, 2-(2,4-Difluorophenyl)-1-(1H-1,2,4-triazol-1-yl)-3-(4-(2-aminoethyl)morpholine)propan-2-ol]	inactive	–	–	–
> 31.3 µg/mL	7.8 to 31.3 µg/mL (≈ 24 to 96.5 µM)	15.6 µg/mL (≈ 48.1 µM)	3.9 to 31.3 µg/mL (≈ 12 to 96.5 µM)	31.3 µg/mL (≈ 96.5 µM)	> 31.3 µg/mL	–	> 31.3 µg/mL	> 31.3 µg/mL	1.95 µg/mL (≈ 6.01 µM)	–	–	–	OC(CN1CCOCC1)(Cn1cncn1)c1ccc(F)cc1F (stereo not shown) [Compound 27, 2-(2,4-Difluorophenyl)-1-(1H-1,2,4-triazol-1-yl)-3-(mopholine)-propan-2-ol]	inactive	–	–	–
7.8 µg/mL (≈ 32.4 µM)	7.8 µg/mL (≈ 32.4 µM)	15.6 µg/mL (≈ 64.9 µM)	7.8 µg/mL (≈ 32.4 µM)	15.6 µg/mL (≈ 64.9 µM)	15.6 µg/mL (≈ 64.9 µM)	31.3 µg/mL (≈ 130 µM)	7.8 µg/mL (≈ 32.4 µM)	7.8 µg/mL (≈ 32.4 µM)	15.6 µg/mL (≈ 64.9 µM)	–	–	moderately active	CCCCCCCCCCCN1CCNCC1 [Compound 6, 1-Undecyl Piperazine]	–	–	–	–
15.6 µg/mL (≈ 32.7 µM)	15.6 µg/mL (≈ 32.7 µM)	1.95 µg/mL (≈ 4.08 µM)	15.6 µg/mL (≈ 32.7 µM)	15.6 µg/mL (≈ 32.7 µM)	7.8 µg/mL (≈ 16.3 µM)	1.95 µg/mL (≈ 4.08 µM)	1.95 µg/mL (≈ 4.08 µM)	15.6 µg/mL (≈ 32.7 µM)	1.95 µg/mL (≈ 4.08 µM)	–	–	–	CCCCCCCCCCCN1CCN(CC(O)(Cn2cncn2)c2ccc(F)cc2F)CC1 (stereo not shown) [Compound 21, 2-(2,4-Difluorophenyl)-1-(1H-1,2,4-triazol-1-yl)-3-(4-undecylpiperazine)propan-2-ol]	–	–	–	–
–	–	0.975 µg/mL (≈ 1.93 µM)	1.95 µg/mL (≈ 3.86 µM)	–	1.95 µg/mL (≈ 3.86 µM)	0.975 µg/mL (≈ 1.93 µM)	1.95 µg/mL (≈ 3.86 µM)	7.8 µg/mL (≈ 15.4 µM)	0.975 µg/mL (≈ 1.93 µM)	–	–	–	CCCCCCCCCCCCCN1CCN(CC(O)(Cn2cncn2)c2ccc(F)cc2F)CC1 (stereo not shown) [Compound 23, 2-(2,4-Difluorophenyl)-1-(1H-1,2,4-triazol-1-yl)-3-(4-tridecylpiperazine)propan-2-ol]	–	–	–	–
> 31.3 µg/mL	> 31.3 µg/mL	> 31.3 µg/mL	> 31.3 µg/mL	> 31.3 µg/mL	> 31.3 µg/mL	> 31.3 µg/mL	> 31.3 µg/mL	> 31.3 µg/mL	> 31.3 µg/mL	≥ 31.3 µg/mL	–	–	CCCCCCCCCCCCCCN1CCOCC1 [Compound 10, 4-Tetradecyl Morpholine]	–	–	–	–
31.3 µg/mL (≈ 92.8 µM)	7.8 µg/mL (≈ 23.1 µM)	31.3 µg/mL (≈ 92.8 µM)	31.3 µg/mL (≈ 92.8 µM)	31.3 µg/mL (≈ 92.8 µM)	7.8 µg/mL (≈ 23.1 µM)	31.3 µg/mL (≈ 92.8 µM)	7.8 µg/mL (≈ 23.1 µM)	31.3 µg/mL (≈ 92.8 µM)	0.975 µg/mL (≈ 2.89 µM)	–	–	–	CN1CCN(CC(O)(Cn2cncn2)c2ccc(F)cc2F)CC1 (stereo not shown) [Compound 16]	–	–	–	< 10%
0.24 µg/mL (≈ 0.22 µM)	0.12 µg/mL (≈ 0.11 µM)	> 31.3 µg/mL	0.12 µg/mL (≈ 0.11 µM)	0.48 µg/mL (≈ 0.439 µM)	0.06 µg/mL (≈ 0.0549 µM)	> 31.3 µg/mL	0.975 µg/mL (≈ 0.892 µM)	0.24 µg/mL (≈ 0.22 µM)	> 31.3 µg/mL	–	–	–	CC[C@H](C)C[C@H](C)CCCCCCCCC(=O)N[C@H]1C[C@@H](O)[C@@H](NCCN)NC(=O)[C@@H]2[C@@H](O)CCN2C(=O)[C@H]([C@H](O)CCN)NC(=O)[C@H]([C@H](O)[C@@H](O)c2ccc(O)cc2)NC(=O)[C@@H]2C[C@@H](O)CN2C(=O)[C@H]([C@@H](C)O)NC1=O [CAS, caspofungin, reference compound]	–	–	–	–

The remaining lines, values behind:

SMILES	MIC [1]	MIC [2]	MIC [3]	MIC [4]	MIC [5]	MIC [6]	MIC [7]	MIC [9]	MIC [10]	MIC [11]	MIC [8]	increase in MIC in biofilms (SMIC50 and SMIC80 versus MIC in liquid cultures) [13]	antifungal activity class based on MIC values [8]	antifungal activity (in words) [8]	antifungal activity in the presence of FBS (in words) [12]	hemolysis at 60 min, 7.8 µg/mL (Hemolytic activity assay)	hemolysis at 60 min, 62.5 µg/mL (Hemolytic activity assay)
CCCCCCCCCCCCCN1CCNCC1 [Compound 8, 1-Tridecyl Piperazine]	1.95 µg/mL (≈ 7.26 µM)	1.95 µg/mL (≈ 7.26 µM)	1.95 µg/mL (≈ 7.26 µM)	0.975 µg/mL (≈ 3.63 µM)	1.95 µg/mL (≈ 7.26 µM)	1.95 µg/mL (≈ 7.26 µM)	1.95 µg/mL (≈ 7.26 µM)	0.975 µg/mL (≈ 3.63 µM)	0.975 µg/mL (≈ 3.63 µM)	0.975 µg/mL (≈ 3.63 µM)	0.015 to 1.95 µg/mL (≈ 0.0559 to 7.26 µM)	–	–	–	–	–	–
Fc1ccc(C2(Cn3cncn3)CO2)c(F)c1 (stereo not shown) [Compound 14, 1-[[2-(2,4-Difluorophenyl)-2-oxiranyl]methyl]-1H-1,2,4-triazole]	> 31.3 µg/mL	> 31.3 µg/mL	> 31.3 µg/mL	> 31.3 µg/mL	> 31.3 µg/mL	> 31.3 µg/mL	> 31.3 µg/mL	> 31.3 µg/mL	> 31.3 µg/mL	> 31.3 µg/mL	–	–	–	inactivity	–	–	–
CCCCCCCCCCN1CCN(CC(O)(Cn2cncn2)c2ccc(Cl)cc2Cl)CC1 (stereo not shown) [Compound 25, 2-(2,4-Dichlorophenyl)-1-(1H-1,2,4-triazol-1-yl)-3-(4-decylpiperazine)propan-2-ol]	7.8 µg/mL (≈ 15.7 µM)	7.8 µg/mL (≈ 15.7 µM)	–	–	7.8 µg/mL (≈ 15.7 µM)	7.8 µg/mL (≈ 15.7 µM)	–	–	–	–	–	1–2 fold	–	–	retained their full antifungal activity	22%	–
CCCCCN1CCN(CC(O)(Cn2cncn2)c2ccc(F)cc2F)CC1 (stereo not shown) [Compound 17, 2-(2,4-Difluorophenyl)-1-(1H-1,2,4-triazol-1-yl)-3-(4-pentylpiperazine)propan-2-ol]	> 31.3 µg/mL	> 31.3 µg/mL	> 31.3 µg/mL	31.3 µg/mL (≈ 79.5 µM)	> 31.3 µg/mL	> 31.3 µg/mL	> 31.3 µg/mL	> 31.3 µg/mL	> 31.3 µg/mL	> 31.3 µg/mL	–	–	–	basically inactive	–	–	–
CCCCCCCCN1CCNCC1 [Compound 3, 1-Octyl Piperazine]	> 31.3 µg/mL	> 31.3 µg/mL	> 31.3 µg/mL	> 31.3 µg/mL	> 31.3 µg/mL	> 31.3 µg/mL	> 31.3 µg/mL	> 31.3 µg/mL	> 31.3 µg/mL	> 31.3 µg/mL	–	–	–	–	–	–	–
CCCCCCCCCN1CCNCC1 [Compound 4, 1-Nonyl Piperazine]	31.3 µg/mL (≈ 147 µM)	31.3 µg/mL (≈ 147 µM)	> 31.3 µg/mL	31.3 µg/mL (≈ 147 µM)	> 31.3 µg/mL	> 31.3 µg/mL	31.3 µg/mL (≈ 147 µM)	31.3 µg/mL (≈ 147 µM)	> 31.3 µg/mL	> 31.3 µg/mL	≥ 31.3 µg/mL	–	–	–	–	–	–
CN1CCNCC1 [Compound 1, N-methylpiperazine]	> 31.3 µg/mL	> 31.3 µg/mL	> 31.3 µg/mL	> 31.3 µg/mL	> 31.3 µg/mL	> 31.3 µg/mL	> 31.3 µg/mL	> 31.3 µg/mL	> 31.3 µg/mL	> 31.3 µg/mL	≥ 31.3 µg/mL	–	–	–	–	–	–
CCCCCCCCCN1CCN(CC(O)(Cn2cncn2)c2ccc(F)cc2F)CC1 (stereo not shown) [Compound 19, 2-(2,4-Difluorophenyl)-1-(1H-1,2,4-triazol-1-yl)-3-(4-nonylpiperazine)propan-2-ol]	15.6 µg/mL (≈ 34.7 µM)	15.6 µg/mL (≈ 34.7 µM)	1.95 µg/mL (≈ 4.34 µM)	7.8 µg/mL (≈ 17.3 µM)	15.6 µg/mL (≈ 34.7 µM)	3.9 µg/mL (≈ 8.67 µM)	0.48 µg/mL (≈ 1.07 µM)	0.975 µg/mL (≈ 2.17 µM)	7.8 µg/mL (≈ 17.3 µM)	0.975 µg/mL (≈ 2.17 µM)	–	–	–	–	–	–	–
CCCCCCCCCCCCCCN1CCN(CC(O)(Cn2cncn2)c2ccc(F)cc2F)CC1 (stereo not shown) [Compound 24, 2-(2,4-Difluorophenyl)-1-(1H-1,2,4-triazol-1-yl)-3-(4-tetradecylpiperazine)propan-2-ol]	3.9 µg/mL (≈ 7.5 µM)	3.9 µg/mL (≈ 7.5 µM)	0.975 µg/mL (≈ 1.88 µM)	1.95 µg/mL (≈ 3.75 µM)	1.95 µg/mL (≈ 3.75 µM)	7.8 µg/mL (≈ 15 µM)	0.48 µg/mL (≈ 0.924 µM)	1.95 µg/mL (≈ 3.75 µM)	31.3 µg/mL (≈ 60.2 µM)	1.95 µg/mL (≈ 3.75 µM)	–	–	–	–	–	> 50%	–
CCCCCCCCCCN1CCNCC1 [Compound 5, 1-Decyl Piperazine]	15.6 µg/mL (≈ 68.9 µM)	15.6 µg/mL (≈ 68.9 µM)	15.6 µg/mL (≈ 68.9 µM)	15.6 µg/mL (≈ 68.9 µM)	15.6 µg/mL (≈ 68.9 µM)	15.6 µg/mL (≈ 68.9 µM)	31.3 µg/mL (≈ 138 µM)	15.6 µg/mL (≈ 68.9 µM)	15.6 µg/mL (≈ 68.9 µM)	15.6 µg/mL (≈ 68.9 µM)	–	–	moderately active	–	–	–	–
CCCCCN1CCNCC1 [Compound 2, N-pentylpiperazine]	> 31.3 µg/mL	> 31.3 µg/mL	> 31.3 µg/mL	> 31.3 µg/mL	> 31.3 µg/mL	> 31.3 µg/mL	> 31.3 µg/mL	> 31.3 µg/mL	> 31.3 µg/mL	> 31.3 µg/mL	≥ 31.3 µg/mL	–	–	–	–	–	–
